Like-named read-outs stand apart in the source and are kept apart here. Numbered stars: 1 amine (or outer) side, 2 acyl side, 3 side chain; on linkers, the order of the positions; unused ones are H or OH. Bridge positions count the residues as written; N and C are the ends. Square brackets hold non-standard residues; d marks the D form. Peptide text beside a SMILES is read from it. NGly(3-aminopropyl) = O=C(CN(CCCN[*:3])[*:1])[*:2]; N(2-Aminoethyl)Gly = O=C(CN(CCN[*:3])[*:1])[*:2]; N(CH2CH2CO)Gly = O=C(CN(CCC(=O)[*:3])[*:1])[*:2]
Tests used:
BK2 receptors = molecular target: T1, BK2 receptors (Cavia porcellus, UniProt O70526); assay: Bradykinin antagonist assay, guinea-pig ileum contraction
T1 construct: This tissue contains predominantly BK2 receptors; from tissue; host or cells: guinea-pig ileum, longitudinal muscle layer with adhering mesenteric plexus
T1 sequence (O70526 1-372): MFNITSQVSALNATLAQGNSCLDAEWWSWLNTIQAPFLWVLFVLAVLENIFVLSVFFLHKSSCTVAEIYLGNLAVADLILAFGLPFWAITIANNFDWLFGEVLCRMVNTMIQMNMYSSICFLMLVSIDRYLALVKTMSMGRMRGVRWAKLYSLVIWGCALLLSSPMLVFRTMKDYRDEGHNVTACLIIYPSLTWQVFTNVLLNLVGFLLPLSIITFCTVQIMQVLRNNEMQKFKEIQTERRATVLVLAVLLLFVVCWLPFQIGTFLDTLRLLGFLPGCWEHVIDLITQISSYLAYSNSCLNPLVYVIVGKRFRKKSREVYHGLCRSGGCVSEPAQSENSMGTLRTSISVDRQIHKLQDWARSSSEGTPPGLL
Method: The ileum of the guinea-pig was selected as the preparation for the bioassay. This tissue contains predominantly BK2 receptors. The preparation consists of the longitudinal muscle layer with the adhering mesenteric plexus. The isolated preparation was kept in Krebs solution and contractions were measured with an isometric force transducer. […] Atropine (1 μM) was always present.

[1] = In vitro biostability in human serum; format: in vitro ADME; conditions: 37° C., HPLC determination of peptide degradation over time, compared with PTR 3001, octreotide, SRIF
Method: The in vitro biostability of a SST cyclic peptide analog, PTR 3002, was measured in human serum, and was compared to the same sequence in a non-cyclic peptide analog (PTR 3001), to octreotide (Sandostatin), and to native somatostatin (SRIF). […] The assay was based on HPLC determination of peptide degradation as a function of time at 37° C.

[2] = molecular target: T2, Somatostatin Receptor (SSTR) Subtype SSTR 5 (Homo sapiens, UniProt P35346); assay: Inhibition of radioactive iodinated somatostatin (SRIF-14) binding, CHO cells expressing SSTR 5; conditions: read-out: percent inhibition of radioactive iodinated somatostatin (SRIF-14) binding, SSTR 5; for inhibition at 1 µM: Conc. 10^-6 M; for inhibition at 0.1 µM: Conc. 10^-7 M; for inhibition at 0.01 µM: Conc. 10^-8 M
T2 construct: expressed in transfected cells; host or cells: CHO cells
T2 sequence (P35346 whole entry): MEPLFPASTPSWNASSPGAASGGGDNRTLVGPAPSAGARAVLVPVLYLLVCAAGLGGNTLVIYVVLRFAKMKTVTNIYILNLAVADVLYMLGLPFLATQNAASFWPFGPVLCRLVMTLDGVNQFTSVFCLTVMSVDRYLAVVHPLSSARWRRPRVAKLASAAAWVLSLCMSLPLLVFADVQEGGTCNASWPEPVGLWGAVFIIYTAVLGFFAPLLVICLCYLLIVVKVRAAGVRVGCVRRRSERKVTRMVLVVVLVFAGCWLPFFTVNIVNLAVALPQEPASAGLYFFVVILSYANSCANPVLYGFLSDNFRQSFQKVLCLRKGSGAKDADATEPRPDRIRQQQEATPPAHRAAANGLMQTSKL
Description: (§1) The values presented are percent inhibition of radioactive iodinated somatostatin (SRIF-14) binding.

[3] = molecular target: T3, Somatostatin Receptor (SSTR) Subtype SSTR 2B (Homo sapiens, UniProt P30874); assay: Inhibition of radioactive iodinated somatostatin (SRIF-14) binding, CHO cells expressing SSTR 2B; conditions: read-out: percent inhibition of radioactive iodinated somatostatin (SRIF-14) binding, SSTR 2B; for inhibition at 1 µM: Conc. 10^-6 M; for inhibition at 0.1 µM: Conc. 10^-7 M; for inhibition at 0.01 µM: Conc. 10^-8 M
T3 construct: expressed in transfected cells; host or cells: CHO cells
T3 sequence (P30874 1-356 isoform P30874-2): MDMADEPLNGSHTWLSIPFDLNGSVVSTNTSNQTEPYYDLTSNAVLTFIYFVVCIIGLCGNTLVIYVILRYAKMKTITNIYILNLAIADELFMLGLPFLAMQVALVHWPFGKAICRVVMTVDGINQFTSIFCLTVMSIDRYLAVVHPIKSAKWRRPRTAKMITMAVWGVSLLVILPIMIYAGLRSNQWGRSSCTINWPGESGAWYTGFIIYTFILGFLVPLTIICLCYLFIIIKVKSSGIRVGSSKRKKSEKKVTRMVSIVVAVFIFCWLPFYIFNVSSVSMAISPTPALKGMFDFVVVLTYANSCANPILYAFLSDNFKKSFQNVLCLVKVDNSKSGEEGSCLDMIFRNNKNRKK
Description: as §1

[4] = Lack of toxicity of cyclized peptide analogs in rats; format: in vivo
Description: These two doses are several orders of magnitude higher than those needed to elicit the desired endocrine effect. The peptides dissolved in saline produced no untoward side effects on the central nervous system, cardiovascular system, body temperature, nor on the periphery of the animals.

bradykinin receptors = molecular target: T4, bradykinin receptors (Rattus norvegicus, UniProt P25023); assay: Bradykinin antagonist assay, (3H)dopamine release from PC 12 cells; format: cell-based; conditions: At 10^-6 M; (3H)dopamine release from PC 12 cells stimulated by bradykinin
T4 construct: PC 12 cells that express bradykinin receptors; endogenous in cells; host or cells: PC12 cells
T4 sequence (P25023 1-396): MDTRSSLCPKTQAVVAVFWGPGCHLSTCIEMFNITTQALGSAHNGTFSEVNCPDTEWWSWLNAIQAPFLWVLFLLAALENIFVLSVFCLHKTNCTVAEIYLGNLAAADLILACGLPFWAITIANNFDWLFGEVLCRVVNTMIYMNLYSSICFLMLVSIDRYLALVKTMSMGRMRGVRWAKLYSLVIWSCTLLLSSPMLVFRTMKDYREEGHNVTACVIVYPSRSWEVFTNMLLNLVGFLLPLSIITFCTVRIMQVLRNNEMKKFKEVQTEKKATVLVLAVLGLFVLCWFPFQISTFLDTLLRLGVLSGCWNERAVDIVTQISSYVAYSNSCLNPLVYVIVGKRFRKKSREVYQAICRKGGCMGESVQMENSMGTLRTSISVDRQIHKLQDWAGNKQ
Method: Novel backbone cyclized peptide analogs of the present invention were assayed in vitro for bradykinin antagonist activity by protection of (^3 H) dopamine release from PC 12 cells that express bradykinin receptors. PC12 cells were grown in Dulbecco Modified Eagle's medium with high glucose, supplemented with 10% horse serum, 5% fetal calf serum, 130 units/ml penicillin and 0.1 mg/ml streptomycin. For experiments, cells were removed from the medium using 1 mmole EDTA and replated on collagen coated-12-well plates and assayed 24 hr later. Release of (^3 H)dopamine was determined as follows: cells were incubated for 1.5 hr at 37° C. with 0.5 ml of growth medium and […] (^3 H)DA (41 Ci/mmole) and […] pargyline followed by extensive washing with medium (3×1 ml) and release buffer consisting of (mM): 130 NaCl; 5 KCl; 25 NaHCO3; 1 NaH2 PO4; 10 glucose and 1.8 CaCl2. In a typical experiment, cells were incubated with 0.5 ml buffer for 5 consecutive incubation periods of 3 min each at 37° C. Spontaneous (^3 H)DA release was measured by collecting the medium released by the cells successively for the first 3 min period. Antagonists were added to the cells 3 min prior to stimulation (at the second period), and stimulation of (^3 H)DA release by 100 nmole of bradykinin are monitored during the 3 period by 60 mmole KCl. The remaining of the (^3 H)DA was extracted from the cells by over night incubation with 0.5 ml 0.1N HCl. (^3 H)DA release during each 3 min period was expressed as a % of the total (^3 H)DA content of the cells. Net evoked release was calculated from (^3 H)DA release during stimulation period after subtracting basal (^3 H)DA release in the preceding baseline period if not indicated otherwise.

[5] = At 10^-6 M, guinea-pig ileum, BK 2×10^-8 M, atropine 1 μM present

Compound: NC(N)=NCCC[C@H](NC(=O)[C@H](Cc1ccccc1)NC(=O)[C@@H]1CCCN1C(=O)[C@H](CO)NC(=O)[C@H](Cc1ccccc1)NC(=O)CNC(=O)[C@@H]1CCCN1C(=O)[C@@H]1CCCN1C(=O)[C@@H](N)CCCN=C(N)N)C(=O)O [BK, Arg^1 -Pro^2 -Pro^3 -Gly^4 -Phe^5 -Ser^6 -Pro^7 -Phe^8 -Arg^9, reference compound] (H-RPPGFSPFR-OH)
- EC50 (BK2 receptors): 20 nM

Compound: C[C@@H](O)[C@H](NC(=O)CN1CCNC(=O)CCN(C(=O)[C@H](N)Cc2ccccc2)CC(=O)N[C@@H](Cc2ccccc2)C(=O)N[C@H](Cc2c[nH]c3ccccc23)C(=O)N[C@@H](CCCCN)C(=O)N[C@@H]([C@@H](C)O)C1=O)C(N)=O [PTR 3002] (H-[dF][N(CH2CH2CO)Gly]F[dW]KT[N(2-Aminoethyl)Gly]T-NH2; lactam 2-7)
- in vitro biostability in human serum [1]: as stable as octreotide, is more stable than the corresponding non-cyclic structure, and is much more stable than SRIF

Compound: C[C@@H](O)[C@H](NC(=O)CNC(=O)[C@@H](NC(=O)[C@H](CCCCN)NC(=O)[C@@H](Cc1c[nH]c2ccccc12)NC(=O)[C@H](Cc1ccccc1)NC(=O)CNC(=O)[C@H](N)Cc1ccccc1)[C@@H](C)O)C(N)=O [PTR 3003] (H-[dF]GF[dW]KTGT-NH2)
- inhibition at 1 µM [2]: 55%
- inhibition at 0.1 µM [2]: 20%
- inhibition at 0.01 µM [2]: 0%
- inhibition at 1 µM [3]: 16%
- inhibition at 0.1 µM [3]: 3%
- inhibition at 0.01 µM [3]: 0%

Compound: C[C@@H](O)[C@H](NC(=O)CN1CCCNC(=O)CN(C(=O)[C@H](N)Cc2ccccc2)CC(=O)N[C@@H](Cc2ccccc2)C(=O)N[C@H](Cc2c[nH]c3ccccc23)C(=O)N[C@@H](CCCCN)C(=O)N[C@@H]([C@@H](C)O)C1=O)C(N)=O [PTR 3004]
- inhibition at 1 µM [2]: 14%
- inhibition at 0.1 µM [2]: 0%
- inhibition at 0.01 µM [2]: 0%
- inhibition at 1 µM [3]: 0%
- inhibition at 0.1 µM [3]: 0%
- inhibition at 0.01 µM [3]: 0%

Compound: C[C@@H](O)[C@H](NC(=O)CN1CCCNC(=O)CCN(C(=O)[C@H](N)Cc2ccccc2)CC(=O)N[C@@H](Cc2ccccc2)C(=O)N[C@H](Cc2c[nH]c3ccccc23)C(=O)N[C@@H](CCCCN)C(=O)N[C@@H]([C@@H](C)O)C1=O)C(N)=O [PTR 3007] (H-[dF][N(CH2CH2CO)Gly]F[dW]KT[NGly(3-aminopropyl)]T-NH2; lactam 2-7)
- respiratory disturbances, stereotyped behavior, muscle tone ([4]; rats observed for 4 hours post administration): produced no respiratory disturbances, did not result in the appearance of stereotyped behavior, or produce any changes in muscle tone
- tolerability ([4]; rats, 1.5 mg/kg, single intraperitoneal application): well tolerated
- inhibition at 1 µM [2]: 19%
- inhibition at 0.1 µM [2]: 9%
- inhibition at 0.01 µM [2]: 0%
- inhibition at 1 µM [3]: 0%
- inhibition at 0.1 µM [3]: 0%
- inhibition at 0.01 µM [3]: 0%

Compound: C[C@@H](O)[C@H](NC(=O)CN1CCC(=O)NCCCN(C(=O)[C@H](N)Cc2ccccc2)CC(=O)N[C@@H](Cc2ccccc2)C(=O)N[C@H](Cc2c[nH]c3ccccc23)C(=O)N[C@@H](CCCCN)C(=O)N[C@@H]([C@@H](C)O)C1=O)C(N)=O [PTR 3010] (H-[dF][NGly(3-aminopropyl)]F[dW]KT[N(CH2CH2CO)Gly]T-NH2; lactam 2-7)
- inhibition at 1 µM [2]: 63%
- inhibition at 0.1 µM [2]: 26%
- inhibition at 0.01 µM [2]: 9%
- inhibition at 1 µM [3]: 0%
- inhibition at 0.1 µM [3]: 0%
- inhibition at 0.01 µM [3]: 0%

Compound: Ada-(D)Arg-Arg-cyclo(N^α (1-(6-aminohexylene)Gly-Hyp-Phe-D-Asp)-D-Phe-Phe-Arg-OH [Example 1]
- inhibition of BK activity (BK2 receptors): 24%
- inhibition of BK activity (bradykinin receptors): 30%

Compound: Ada-D-Arg-Arg-N^α (6-acetamidohexylene)Gly-Hyp-Phe-D-Asp(NH-Me)-D-Phe-Phe-Arg-OH [Example 2]
- inhibition of BK activity (BK2 receptors; [5]): 0%
- inhibition of BK activity (bradykinin receptors): 0%

Compound: H-D-Arg-Arg-cyclo(N^α (1-(4-propanoyl))Gly-Hyp-Phe-N^α (3-amido-propylene)Gly)-Ser-D-Phe-Phe-Arc-OH [Example 3]
- inhibition of BK activity (BK2 receptors; [5]): 10%

Compound: H-D-Arg-Arg-cyclo(N^α (4-propanoyl)Gly-Hyp-Phe-N^α (3-amido-propyl)-S-Phe)-Ser-D-Phe-Phe-Arg-OH [Example 4]
- inhibition of BK activity (BK2 receptors; [5]): 17%
- inhibition of BK activity (bradykinin receptors): 17%

Source: patent US5874529A, “Conformationally constrained backbone cyclized peptide analogs” (Peptor Ltd., priority 1994, dated 1999)
